Data published in patent publication US7601753B2, “Pyrrolidine melanocortin-specific compounds” (Palatin Technologies, Inc., priority 2001, dated 2009).
Where two headings read alike, the source gives them in different places. Non-standard residues stand in square brackets, D forms with d. Residues, ends and D or L forms follow the SMILES beside them. *: point of attachment. Hyp = O=C(O)[C@@H]1C[C@@H](O)CN1; Nle = CCCC[C@H](N)C(=O)O; NH(CH2)3NH2 = NCCCN*; Bn = c1ccc(C*)cc1

Legend:
[1] = biological target: T1, hMC3-R (Homo sapiens, UniProt P41968); assay: Competitive inhibition binding assay, 125I-NDP-α-MSH, hMC3-R; details: 1 μM test compound, 0.4 nM 125I-NDP-α-MSH, hMC3-R membranes, mean of triplicates, results less than 0% reported as 0%; for inhibition at 1 µM: read-out: Inhibition at 1 μM MC3-R
T1 construct: expressed in transfected cells
Method: (§1) A competitive inhibition binding assay was conducted using membranes prepared from hMC3-R, hMC4-R, hMC5-R, and B-16 mouse melanoma cells (containing MC1-R) using 0.4 nM ^125I-NDP-α-MSH (New England Nuclear, Boston, Mass., USA) in 50 mM HEPES buffer containing 1 mM MgCl2, 2 mM CaCl2, and 5 mM KCl, at pH 7.2. The assay tube also contained a chosen concentration of the test compound of this invention, typically a 1 μM concentration, for determining its efficacy in inhibiting the binding of ^125I-NDP-α-MSH to its receptor.
(§2) Incubation was for 90 minutes at room temperature, after which the assay mixture was filtered and the membranes washed three times with ice cold buffer. The filter was dried and counted in a gamma counter for remaining radioactivity bound to the membranes. 100% specific binding was defined as the difference in radioactivity (cpm) bound to cell membranes in the absence and presence of 1 μM α-MSH. […] Each assay was conducted in triplicate and the actual mean values are described.

[2] = biological target: T2, hMC4-R (Homo sapiens, UniProt P32245); assay: Competitive inhibition binding assay, 125I-NDP-α-MSH, hMC4-R; details: 1 μM test compound, 0.4 nM 125I-NDP-α-MSH, hMC4-R membranes, mean of triplicates, results less than 0% reported as 0%; for inhibition at 1 µM: read-out: Inhibition at 1 μM MC4-R
T2 construct: expressed in transfected cells
Method: as §1, §2

[3] = biological target: T3, MC1-R (B-16 mouse melanoma cells) (Mus musculus, UniProt Q01727); assay: Competitive inhibition binding assay, 125I-NDP-α-MSH, MC1-R; details: 1 μM test compound; 0.4 nM 125I-NDP-α-MSH; B-16 mouse melanoma cell membranes; mean of triplicates; results less than 0% reported as 0%
T3 construct: membranes prepared from hMC3-R, hMC4-R, hMC5-R, and B-16 mouse melanoma cells (containing MC1-R); endogenous in cells; host or cells: B-16 mouse melanoma cells (membranes)
Method: as §1, §2

[4] = biological target: T4, hMC5-R (Homo sapiens, UniProt P33032); assay: Competitive inhibition binding assay, 125I-NDP-α-MSH, hMC5-R; details: 1 μM test compound, 0.4 nM 125I-NDP-α-MSH, hMC5-R membranes, mean of triplicates, results less than 0% reported as 0%; for inhibition at 1 µM: read-out: Inhibition at 1 μM MC5-R
T4 construct: expressed in transfected cells
Method: as §1, §2

[5] = biological target: T3, MC1-R (B-16 mouse melanoma cells); assay: Ki determination by the method of Example 3, MC1-R; type: cell-based
[6] = biological target: T5, MC3-R (HEK-293 cells expressing MC3-R) (Homo sapiens, UniProt P41968); assay: Ki determination by the method of Example 3, MC3-R; type: cell-based; details: bound in μM
T5 construct: expressed in transfected cells; host or cells: HEK-293

[7] = biological target: T6, MC4-R (HEK-293 cells expressing MC4-R) (Homo sapiens, UniProt P32245); assay: Ki determination by the method of Example 3, MC4-R; type: cell-based; details: bound in μM
T6 construct: expressed in transfected cells; host or cells: HEK-293

[8] = biological target: T7, MC5-R (HEK-293 cells expressing MC5-R) (Homo sapiens, UniProt P33032); assay: Ki determination by the method of Example 3, MC5-R; type: cell-based
T7 construct: expressed in transfected cells; host or cells: HEK-293
T7 sequence (P33032 whole entry): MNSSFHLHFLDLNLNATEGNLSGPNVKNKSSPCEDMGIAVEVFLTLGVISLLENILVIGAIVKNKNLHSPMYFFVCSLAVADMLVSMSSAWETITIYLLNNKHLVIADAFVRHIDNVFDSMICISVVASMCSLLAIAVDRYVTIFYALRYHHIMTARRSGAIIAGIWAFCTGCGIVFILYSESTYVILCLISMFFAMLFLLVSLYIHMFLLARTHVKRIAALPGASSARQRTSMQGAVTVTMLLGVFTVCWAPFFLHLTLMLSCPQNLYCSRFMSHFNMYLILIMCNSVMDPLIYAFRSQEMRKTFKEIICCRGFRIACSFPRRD

T4 sequence (P33032 whole entry): as above
T3 sequence (Q01727 whole entry): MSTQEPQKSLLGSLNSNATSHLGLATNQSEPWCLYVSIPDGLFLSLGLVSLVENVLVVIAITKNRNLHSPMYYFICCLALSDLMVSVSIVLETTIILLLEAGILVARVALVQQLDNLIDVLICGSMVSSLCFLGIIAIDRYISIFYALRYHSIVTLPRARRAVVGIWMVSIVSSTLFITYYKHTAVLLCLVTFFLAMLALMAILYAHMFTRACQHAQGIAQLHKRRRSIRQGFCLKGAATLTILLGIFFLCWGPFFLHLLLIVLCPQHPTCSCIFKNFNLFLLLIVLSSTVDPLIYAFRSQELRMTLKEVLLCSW
T1 sequence (P41968 whole entry): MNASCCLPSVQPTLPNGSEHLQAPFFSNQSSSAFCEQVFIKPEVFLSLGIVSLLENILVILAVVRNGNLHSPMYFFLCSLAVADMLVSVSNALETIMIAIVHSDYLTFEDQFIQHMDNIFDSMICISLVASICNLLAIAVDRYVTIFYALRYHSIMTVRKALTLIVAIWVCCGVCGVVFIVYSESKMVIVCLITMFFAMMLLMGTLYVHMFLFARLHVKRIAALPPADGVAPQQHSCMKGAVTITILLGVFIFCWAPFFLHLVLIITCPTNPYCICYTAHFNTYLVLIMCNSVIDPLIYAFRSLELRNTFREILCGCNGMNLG
T2 sequence (P32245 whole entry): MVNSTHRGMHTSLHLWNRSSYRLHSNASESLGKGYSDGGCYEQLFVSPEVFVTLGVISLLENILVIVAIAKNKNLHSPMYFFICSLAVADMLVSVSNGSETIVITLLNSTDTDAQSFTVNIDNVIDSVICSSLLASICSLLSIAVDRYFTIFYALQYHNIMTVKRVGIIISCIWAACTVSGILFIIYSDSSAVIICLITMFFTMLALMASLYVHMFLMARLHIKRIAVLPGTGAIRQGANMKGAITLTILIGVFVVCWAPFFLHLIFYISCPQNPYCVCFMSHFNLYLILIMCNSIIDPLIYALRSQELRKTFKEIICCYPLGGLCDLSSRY
T5 sequence (P41968 whole entry): as the sequence (P41968 whole entry) above
T6 sequence (P32245 whole entry): as the sequence (P32245 whole entry) above

Row | inhibition at 1 µM [1] [%] | inhibition at 1 µM [2] [%] | inhibition at 1 µM [3] [%] | inhibition at 1 µM [4] [%] | Compound | other results
1 | 0 | 6 | 34 | 14 | NCCCNC(=O)[C@@H]1C[C@@H](OCc2ccccc2)CN1C(=O)[C@@H](Cc1ccccc1)NC(=O)[C@@H]1Cc2ccccc2CN1 [Example 23] | –
2 | – | – | – | – | [2H]N[C@@H](Cc1ccccc1)C(=O)N1C2CC[C@H](COc3ccc4ccccc4c3)N2C(=O)[C@@H]1CCCCN (stereo partly drawn) [Example 38] | Inhibition at 1 μM MC3-R [1]: 0%; Inhibition at 1 μM MC4-R [2]: 13%; Inhibition at 1 μM MC1-R [3]: 0%; Inhibition at 1 μM MC5-R [4]: 1%
3 | 0 | 11 | 13 | 0 | [2H]N1CCC[C@@H]1C(=O)N[C@@H](Cc1ccccc1)C(=O)N1C[C@H](OCc2ccccc2)C[C@H]1C(=O)NCCCN [Example 44] | –
4 | 10 | 27 | 29 | 38 | NCCCNC(=O)[C@@H]1C[C@@H](OCc2ccccc2)CN1C(=O)[C@@H](Cc1ccc(Cl)cc1)NC(=O)[C@H]1Cc2ccccc2CN1 [Example 22] | –
5 | 0 | 1 | 42 | 7 | [2H]N[C@@H](Cc1cnc[nH]1)C(=O)N[C@@H](Cc1ccccc1)C(=O)N1C[C@H](OCc2ccccc2)C[C@H]1C(=O)NCCCCCN [Example 26] | –
6 | – | – | – | – | C[C@@H]1CN(C(=O)[C@H](N)Cc2ccc(Cl)cc2)[C@@H](CCCNC(=N)N)CN1CCc1ccc2ccccc2c1 [Example 15] | Inhibition at 1 μM MC3-R [1]: 46%; Inhibition at 1 μM MC4-R [2]: 43%; Inhibition at 1 μM MC1-R [3]: 85%; Inhibition at 1 μM MC5-R [4]: 34%
7 | 0 | 5 | 17 | 0 | NCCCNC(=O)[C@@H]1C[C@@H](OCc2ccccc2)CN1C(=O)[C@@H](Cc1ccccc1)NC(=O)[C@H]1Cc2ccccc2CN1 [Example 24] | –
8 | 0 | 6 | 0 | 4 | [2H]N[C@@H](Cc1cnc[nH]1)C(=O)N[C@@H](Cc1ccccc1)C(=O)N1C[C@H](OCc2ccccc2)C[C@H]1C(=O)NCCCNC(=N)N [Example 29] | –
9 | – | – | – | – | [2H]N[C@@H](Cc1ccccc1)C(=O)N1C2CC[C@H](COc3ccccc3)N2C(=O)[C@@H]1CCCCN (stereo partly drawn) [Example 36] | Inhibition at 1 μM MC3-R [1]: 41%; Inhibition at 1 μM MC4-R [2]: 8%; Inhibition at 1 μM MC1-R [3]: 0%; Inhibition at 1 μM MC5-R [4]: 0%
10 | 13 | 8 | 91 | 25 | CCCC[C@H](NC(C)=O)C(=O)N[C@@H](C)C(=O)N[C@@H](Cc1cnc[nH]1)C(=O)N[C@H](Cc1ccccc1)C(=O)N1C[C@H](OCc2ccccc2)C[C@H]1C(=O)NCCCN [Example 9, Ac-Nle-Ala-His-D-Phe-Hyp(Bzl)-NH(CH2)3—NH2] (Ac-[Nle]AH[dF][Hyp](Bn)-{NH(CH2)3NH2}) | Ki [6]: > 1 µM; Ki [7]: > 1 µM; Ki ([8]; bound in μM, read-out: Ki MC5-R): > 1 µM; Ki ([5]; MC1-R, values in nM, read-out: Ki (nM) MC1-R): 10 nM
11 | 0 | 0 | 0 | 5 | [2H]N[C@@H](Cc1cnc[nH]1)C(=O)N[C@@H](Cc1ccccc1)C(=O)N1C[C@H](OCc2ccccc2)C[C@H]1C(N)=O [Example 28, His-D-Phe-Hyp(Bzl)-NH2] | –
12 | 6 | 29 | 40 | 48 | NCCCNC(=O)[C@@H]1C[C@@H](OCc2ccccc2)CN1C(=O)[C@@H](Cc1ccc(Cl)cc1)NC(=O)[C@@H]1Cc2ccccc2CN1 [Example 21] | Ki ([8]; value in nM, read-out: Ki (nM) MC5-R): 1.15 µM
13 | – | – | – | – | [2H]N[C@@H](Cc1cnc[nH]1)C(=O)N[C@@H](Cc1ccccc1)C(=O)N1C2CC[C@H](COc3ccc4ccccc4c3)N2C(=O)[C@@H]1CCCCN (stereo partly drawn) [Example 42] | Inhibition at 1 μM MC3-R [1]: 0%; Inhibition at 1 μM MC4-R [2]: 10%; Inhibition at 1 μM MC1-R [3]: 18%; Inhibition at 1 μM MC5-R [4]: 0%
14 | 12 | 2 | 50 | 7 | [2H]N[C@@H](Cc1cnc[nH]1)C(=O)N[C@@H](Cc1ccccc1)C(=O)N1C[C@H](OCc2ccccc2)C[C@H]1C(=O)NCCCCN [Example 25] | –
15 | 0 | 2 | 36 | 8 | [2H]N[C@@H](Cc1cnc[nH]1)C(=O)N[C@@H](Cc1ccccc1)C(=O)N1C[C@H](OCc2ccccc2)C[C@H]1C(=O)NCCCCCCN [Example 27] | –
16 | 0 | 0 | 48 | 2 | [2H]N[C@@H](Cc1cnc[nH]1)C(=O)N[C@@H](Cc1ccccc1)C(=O)N1C[C@H](OCc2ccccc2)C[C@H]1C(=O)NCCCN [Example 12] | –
17 | – | – | – | – | CCCCCCC(=O)N[C@@H](Cc1cnc[nH]1)C(=O)N[C@H](Cc1ccccc1)C(=O)N1C[C@H](OCc2ccccc2)C[C@H]1C(=O)NCCCNC(=N)N [Example 30, Heptanoyl-His-D-Phe-Hyp(Bzl)-NH(CH2)3—NH—C(═NH)—NH2] | Inhibition at 1 μM MC3-R [1]: 7%; Inhibition at 1 μM MC4-R [2]: 1%; Inhibition at 1 μM MC1-R [3]: 92%; Inhibition at 1 μM MC5-R [4]: 1%

Row | Compound | inhibition at 1 µM [1] [%] | inhibition at 1 µM [2] [%] | inhibition at 1 µM [3] [%] | inhibition at 1 µM [4] [%] | other results
18 | CCCC[C@H](N)C(=O)N[C@@H](C)C(=O)N[C@@H](Cc1cnc[nH]1)C(=O)N[C@H](Cc1ccccc1)C(=O)N1C[C@H](OCc2ccccc2)C[C@H]1C(=O)NCCCN [Example 10] (H-[Nle]AH[dF][Hyp](Bn)-{NH(CH2)3NH2}) | 6 | 2 | 83 | 7 | Ki [5]: 70 nM
